The record followed here is publication PMC5218480 (PLoS ONE, 2017).

The subject of this assay is MV-4-11 cells. The assay can be described thus: Gene expression microarray analysis (Affymetrix PrimeView) and GSEA. The class given is cell-based, human. Further details: RFU PODN (11730768_x_at) / Fold change /veh PODN (11730768_x_at) / RFU LINC00158 (11744669_a_at) / Fold change /veh LINC00158 (11744669_a_at) / RFU DUSP10 (11751237_a_at) / Fold change /veh DUSP10 (11751237_a_at) / RFU ID3 (11757404_x_at) / Fold change /veh ID3 (11757404_x_at) / RFU PLEKHG5 (11737974_s_at) / Fold change /veh PLEKHG5 (11737974_s_at) / RFU LRRC4B (11730491_at) / Fold change /veh LRRC4B (11730491_at) / RFU GIMAP4 (11747438_a_at) / Fold change /veh GIMAP4 (11747438_a_at) / RFU KRT8 (11758183_x_at) / Fold change /veh KRT8 (11758183_x_at) / RFU CNN1 (11734310_a_at) / Fold change /veh CNN1 (11734310_a_at) / RFU VPS37D (11726825_at) / Fold change /veh VPS37D (11726825_at) / RFU C10orf10 (11716522_x_at) / Fold change /veh C10orf10 (11716522_x_at) / RFU KIR2DL2 /// KIR2DL4 /// KIR2DL5A /// KIR2DL5B /// KIR2DS1 /// KIR2DS2 /// KIR2DS3 /// KIR2DS4 /// KIR3DL3 /// KIR3DL3 /// KIR3DS1 (11738374_at) / Fold change /veh KIR2DL2 /// KIR2DL4 /// KIR2DL5A /// KIR2DL5B /// KIR2DS1 /// KIR2DS2 /// KIR2DS3 /// KIR2DS4 /// KIR3DL3 /// KIR3DL3 /// KIR3DS1 (11738374_at) / RFU C1QL1 (11718748_at) / Fold change /veh C1QL1 (11718748_at) / RFU TMPRSS4 (11747572_a_at) / Fold change /veh TMPRSS4 (11747572_a_at) / RFU HAMP (11756126_x_at) / Fold change /veh HAMP (11756126_x_at) / RFU RNFT2 (11725882_a_at) / Fold change /veh RNFT2 (11725882_a_at) / RFU NR4A2 (11747474_a_at) / Fold change /veh NR4A2 (11747474_a_at) / RFU ABCC12 (11746883_a_at) / Fold change /veh ABCC12 (11746883_a_at) / RFU TMEM136 (11760407_x_at) / Fold change /veh TMEM136 (11760407_x_at) / RFU CLDN22 /// WWC2 (11732394_at) / Fold change /veh CLDN22 /// WWC2 (11732394_at) / RFU HLA-DPB1 (11760878_x_at) / Fold change /veh HLA-DPB1 (11760878_x_at) / RFU SPINT1 (11716480_a_at) / Fold change /veh SPINT1 (11716480_a_at) / RFU GAP43 (11754022_s_at) / Fold change /veh GAP43 (11754022_s_at) / RFU A4GNT (11735810_at) / Fold change /veh A4GNT (11735810_at) / RFU PRB3 (11715151_x_at) / Fold change /veh PRB3 (11715151_x_at) / RFU TUBB4B (11761932_at) / Fold change /veh TUBB4B (11761932_at) / RFU CAPN14 (11732068_a_at) / Fold change /veh CAPN14 (11732068_a_at) / RFU TMCC2 (11721928_a_at) / Fold change /veh TMCC2 (11721928_a_at) / RFU IRGQ (11745062_a_at) / Fold change /veh IRGQ (11745062_a_at) / RFU FAM174B (11720279_a_at) / Fold change /veh FAM174B (11720279_a_at) / RFU TMPRSS4 (11748680_a_at) / Fold change /veh TMPRSS4 (11748680_a_at) / RFU FAM212B (11763350_a_at) / Fold change /veh FAM212B (11763350_a_at) / RFU PLEKHG5 (11743358_a_at) / Fold change /veh PLEKHG5 (11743358_a_at) / RFU ZSCAN30 (11745921_a_at) / Fold change /veh ZSCAN30 (11745921_a_at) / RFU CMKLR1 (11741424_a_at) / Fold change /veh CMKLR1 (11741424_a_at) / RFU LOC101060620 /// MAPK8IP1 (11723275_at) / Fold change /veh LOC101060620 /// MAPK8IP1 (11723275_at) / RFU SPTSSB (11747773_x_at) / Fold change /veh SPTSSB (11747773_x_at) / RFU PRSS12 (11739890_at) / Fold change /veh PRSS12 (11739890_at) / RFU BIN1 (11741810_x_at) / Fold change /veh BIN1 (11741810_x_at) / RFU WNT11 (11732464_a_at) / Fold change /veh WNT11 (11732464_a_at) / RFU C10orf10 (11716521_a_at) / Fold change /veh C10orf10 (11716521_a_at) / RFU C5orf56 (11738089_at) / Fold change /veh C5orf56 (11738089_at) / RFU CYB561 (11721691_x_at) / Fold change /veh CYB561 (11721691_x_at) / RFU ANKRD19P (11752326_a_at) / Fold change /veh ANKRD19P (11752326_a_at) / RFU OR2T12 /// OR2T33 /// OR2T8 (11738714_s_at) / Fold change /veh OR2T12 /// OR2T33 /// OR2T8 (11738714_s_at) / RFU VCAN (11748164_a_at) / Fold change /veh VCAN (11748164_a_at) / RFU JSRP1 (11732532_at) / Fold change /veh JSRP1 (11732532_at) / RFU KRTAP10-11 (11738290_x_at) / Fold change /veh KRTAP10-11 (11738290_x_at) / RFU MYO3A (11730013_a_at) / Fold change /veh MYO3A (11730013_a_at) / RFU EBF3 (11725865_a_at) / Fold change /veh EBF3 (11725865_a_at) / RFU CAMK2N1 (11719241_x_at) / Fold change /veh CAMK2N1 (11719241_x_at) / RFU C5orf56 (11738088_a_at) / Fold change /veh C5orf56 (11738088_a_at) / RFU OLFML3 (11715873_a_at) / Fold change /veh OLFML3 (11715873_a_at) / RFU LOC100653217 /// NTM (11731650_a_at) / Fold change /veh LOC100653217 /// NTM (11731650_a_at) / RFU MAPK11 (11762145_a_at) / Fold change /veh MAPK11 (11762145_a_at) / RFU FIZ1 (11724087_x_at) / Fold change /veh FIZ1 (11724087_x_at) / RFU OASL (11726364_x_at) / Fold change /veh OASL (11726364_x_at) / RFU SOX15 (11748057_x_at) / Fold change /veh SOX15 (11748057_x_at) / RFU CD79A (11719716_a_at) / Fold change /veh CD79A (11719716_a_at) / RFU HIST1H1D (11736915_at) / Fold change /veh HIST1H1D (11736915_at) / RFU CASKIN2 (11723855_a_at) / Fold change /veh CASKIN2 (11723855_a_at) / RFU LOC730098 (11760151_x_at) / Fold change /veh LOC730098 (11760151_x_at) / RFU OR4N2 (11742367_at) / Fold change /veh OR4N2 (11742367_at) / RFU PRRT2 (11749266_a_at) / Fold change /veh PRRT2 (11749266_a_at) / RFU SNX32 (11753110_a_at) / Fold change /veh SNX32 (11753110_a_at) / RFU CDHR5 (11726645_a_at) / Fold change /veh CDHR5 (11726645_a_at) / RFU RCAN1 (11760418_a_at) / Fold change /veh RCAN1 (11760418_a_at) / RFU FAM167A (11723789_a_at) / Fold change /veh FAM167A (11723789_a_at) / RFU FAM26E (11764081_at) / Fold change /veh FAM26E (11764081_at) / RFU ISYNA1 (11749810_s_at) / Fold change /veh ISYNA1 (11749810_s_at) / RFU ACY1 (11761880_at) / Fold change /veh ACY1 (11761880_at) / RFU 11764098_at / Fold change /veh 11764098_at / RFU SAMD14 (11745864_x_at) / Fold change /veh SAMD14 (11745864_x_at) / RFU NPB (11741838_a_at) / Fold change /veh NPB (11741838_a_at) / RFU TMPRSS6 (11731388_a_at) / Fold change /veh TMPRSS6 (11731388_a_at) / RFU KRTAP10-2 (11738614_at) / Fold change /veh KRTAP10-2 (11738614_at) / RFU ARHGAP8 /// PRR5-ARHGAP8 (11727945_x_at) / Fold change /veh ARHGAP8 /// PRR5-ARHGAP8 (11727945_x_at) / RFU KRTAP5-7 /// NADSYN1 (11734609_at) / Fold change /veh KRTAP5-7 /// NADSYN1 (11734609_at) / RFU RASL12 (11751679_a_at) / Fold change /veh RASL12 (11751679_a_at) / RFU CDKN2B (11736163_a_at) / Fold change /veh CDKN2B (11736163_a_at) / RFU PRF1 (11729649_at) / Fold change /veh PRF1 (11729649_at) / RFU, ZNF638 /// ZNF638-IT1 / Fold change vs veh, ZNF638 /// ZNF638-IT1 / RFU, PANK3 / Fold change vs veh, PANK3 / RFU, SH3YL1 / Fold change vs veh, SH3YL1 / RFU, ZEB2 / Fold change vs veh, ZEB2 / RFU, NRIP1 / Fold change vs veh, NRIP1 / RFU, PTTG1IP / Fold change vs veh, PTTG1IP / RFU, CAPN2 / Fold change vs veh, CAPN2 / RFU, MED14 / Fold change vs veh, MED14 / RFU, SNORA58 / Fold change vs veh, SNORA58 / RFU, C1orf63 / Fold change vs veh, C1orf63 / RFU, LRRFIP1 / Fold change vs veh, LRRFIP1 / RFU, NDUFAF7 / Fold change vs veh, NDUFAF7 / RFU, SLC12A2 / Fold change vs veh, SLC12A2 / RFU, IBTK / Fold change vs veh, IBTK / RFU, ESF1 / Fold change vs veh, ESF1 / Fold change vs veh, TMEM50B / RFU, TAOK1 / Fold change vs veh, TAOK1 / RFU, ACBD3 / Fold change vs veh, ACBD3 / RFU, TMA16 / Fold change vs veh, TMA16 / RFU, RWDD3 / Fold change vs veh, RWDD3 / RFU, BCAT1 / Fold change vs veh, BCAT1 / RFU, EDEM3 / Fold change vs veh, EDEM3 / RFU, TMEM33 / Fold change vs veh, TMEM33 / RFU, WDR75 / Fold change vs veh, WDR75 / RFU, AHCTF1 / Fold change vs veh, AHCTF1 / RFU, TFRC / Fold change vs veh, TFRC / RFU, ZDHHC17 / Fold change vs veh, ZDHHC17 / RFU, NOM1 / Fold change vs veh, NOM1 / RFU, ARL8B / Fold change vs veh, ARL8B / RFU, ZBTB11 / Fold change vs veh, ZBTB11 / RFU, TAMM41 / Fold change vs veh, TAMM41 / RFU, KIAA1704 /// LOC100996395 / Fold change vs veh, KIAA1704 /// LOC100996395 / RFU, ING1 / Fold change vs veh, ING1 / RFU, TRMT61B / Fold change vs veh, TRMT61B / RFU, FUBP3 / Fold change vs veh, FUBP3 / RFU, TP53 / Fold change vs veh, TP53 / RFU, TNKS2 / Fold change vs veh, TNKS2 / RFU, ZFP14 / Fold change vs veh, ZFP14 / RFU, ACTR2 / Fold change vs veh, ACTR2 / RFU, PPP3R1 / Fold change vs veh, PPP3R1 / RFU, PIK3R1 / Fold change vs veh, PIK3R1 / RFU, HNRNPA1 / Fold change vs veh, HNRNPA1 / RFU, RNF170 / Fold change vs veh, RNF170 / RFU, ZNF28 / Fold change vs veh, ZNF28 / RFU, RNGTT / Fold change vs veh, RNGTT / RFU, OGT / Fold change vs veh, OGT / RFU, BRD1 / Fold change vs veh, BRD1 / RFU, MARS / Fold change vs veh, MARS / RFU, ZNF655 / Fold change vs veh, ZNF655 / RFU, FAHD1 / Fold change vs veh, FAHD1 / RFU, BDP1 / Fold change vs veh, BDP1 / RFU, LRRCC1 / Fold change vs veh, LRRCC1 / RFU, ARID1A / Fold change vs veh, ARID1A / RFU, ZNF146 / Fold change vs veh, ZNF146 / RFU, ZNF330 / Fold change vs veh, ZNF330 / RFU, GPN3 / Fold change vs veh, GPN3 / RFU, C9orf123 / Fold change vs veh, C9orf123 / RFU, N4BP2L2 / Fold change vs veh, N4BP2L2 / RFU, ARFIP1 / Fold change vs veh, ARFIP1 / RFU, FAM179B / Fold change vs veh, FAM179B / RFU, BCL10 / Fold change vs veh, BCL10 / RFU, UHRF1BP1L / Fold change vs veh, UHRF1BP1L / RFU, BET1 / Fold change vs veh, BET1 / RFU, CNOT2 / Fold change vs veh, CNOT2 / RFU, ZNF268 / Fold change vs veh, ZNF268 / Fold change vs veh, ZNF507 / RFU, DGCR2 / Fold change vs veh, DGCR2 / RFU, WDSUB1 / Fold change vs veh, WDSUB1 / Fold change vs veh, HSP90B1 /// MIR3652 / RFU, ADSS / Fold change vs veh, ADSS / RFU, GK / Fold change vs veh, GK / RFU, ZNF148 / Fold change vs veh, ZNF148 / RFU, TAF9 / Fold change vs veh, TAF9 / RFU, SLC1A5 / Fold change vs veh, SLC1A5 / RFU, SLMO2 / Fold change vs veh, SLMO2 / RFU, ABCC4 / Fold change vs veh, ABCC4 / RFU, LOC101060439 /// RAP1B / Fold change vs veh, LOC101060439 /// RAP1B / RFU, RFX7 / Fold change vs veh, RFX7 / RFU, GTPBP10 / Fold change vs veh, GTPBP10 / RFU, CNEP1R1 / Fold change vs veh, CNEP1R1 / RFU, BIVM-ERCC5 /// ERCC5 / Fold change vs veh, BIVM-ERCC5 /// ERCC5 / RFU, ILF3 / Fold change vs veh, ILF3 / RFU 11762660_at / Fold change /veh 11762660_at / RFU VCAN (11757783_s_at) / Fold change /veh VCAN (11757783_s_at) / RFU DDX43 (11728927_at) / Fold change /veh DDX43 (11728927_at) / RFU KRT8 (11758188_x_at) / Fold change /veh KRT8 (11758188_x_at) / RFU NKD1 (11759106_at) / Fold change /veh NKD1 (11759106_at) / RFU SRD5A1 (11742802_a_at) / Fold change /veh SRD5A1 (11742802_a_at) / RFU TPSAB1 /// TPSB2 (11721975_s_at) / Fold change /veh TPSAB1 /// TPSB2 (11721975_s_at) / RFU GSTM3 (11746129_a_at) / Fold change /veh GSTM3 (11746129_a_at) / RFU IL23R (11737362_x_at) / Fold change /veh IL23R (11737362_x_at) / RFU TMEM51 (11727254_a_at) / Fold change /veh TMEM51 (11727254_a_at) / RFU PIWIL2 (11732686_x_at) / Fold change /veh PIWIL2 (11732686_x_at) / RFU ORM1 (11744905_x_at) / Fold change /veh ORM1 (11744905_x_at) / RFU CCDC152 (11743942_at) / Fold change /veh CCDC152 (11743942_at) / RFU ECM1 (11717891_a_at) / Fold change /veh ECM1 (11717891_a_at) / RFU IL23R (11748794_a_at) / Fold change /veh IL23R (11748794_a_at) / RFU TNFAIP8L3 (11732012_x_at) / Fold change /veh TNFAIP8L3 (11732012_x_at) / RFU MBOAT4 (11741988_at) / Fold change /veh MBOAT4 (11741988_at) / RFU 11764193_at / Fold change /veh 11764193_at / RFU TMEM53 (11763286_at) / Fold change /veh TMEM53 (11763286_at) / RFU MAGEB2 (11727129_at) / Fold change /veh MAGEB2 (11727129_at) / RFU TMEM200A (11744735_a_at) / Fold change /veh TMEM200A (11744735_a_at) / RFU CCDC152 (11751479_a_at) / Fold change /veh CCDC152 (11751479_a_at) / RFU FAM211A (11726209_a_at) / Fold change /veh FAM211A (11726209_a_at) / RFU RGS16 (11746705_a_at) / Fold change /veh RGS16 (11746705_a_at) / RFU VCAN (11755009_s_at) / Fold change /veh VCAN (11755009_s_at) / RFU RHOB (11743442_s_at) / Fold change /veh RHOB (11743442_s_at) / RFU RGS16 (11720943_a_at) / Fold change /veh RGS16 (11720943_a_at) / RFU RGS16 (11720944_at) / Fold change /veh RGS16 (11720944_at) / RFU, VPS4B / Fold change vs veh, VPS4B / RFU, CREB1 / Fold change vs veh, CREB1 / RFU, DNAJC13 / Fold change vs veh, DNAJC13 / RFU, GNAQ / Fold change vs veh, GNAQ / RFU, CDK5R1 / Fold change vs veh, CDK5R1 / RFU, ZRANB3 / Fold change vs veh, ZRANB3 / RFU, CUL4A / Fold change vs veh, CUL4A / RFU, CCNY / Fold change vs veh, CCNY / RFU, UFL1 / Fold change vs veh, UFL1 / RFU, COG3 / Fold change vs veh, COG3 / RFU, DIAPH2 / Fold change vs veh, DIAPH2 / RFU, SKA2 / Fold change vs veh, SKA2 / RFU, AFF3 / Fold change vs veh, AFF3 / RFU, LMF1 / Fold change vs veh, LMF1 / RFU, IPO11 / Fold change vs veh, IPO11 / RFU, DFFB / Fold change vs veh, DFFB / RFU, FOXP1 / Fold change vs veh, FOXP1 / RFU, CARD8 / Fold change vs veh, CARD8 / RFU, STRN3 / Fold change vs veh, STRN3 / RFU, ADK / Fold change vs veh, ADK / RFU, RASSF2 / Fold change vs veh, RASSF2 / RFU, WIPF1 / Fold change vs veh, WIPF1 / RFU, LARP1B / Fold change vs veh, LARP1B / RFU, RASA1 / Fold change vs veh, RASA1 / RFU, RB1 / Fold change vs veh, RB1 / RFU, PPFIA1 / Fold change vs veh, PPFIA1 / RFU, MAT2A / Fold change vs veh, MAT2A / RFU, CCT5 / Fold change vs veh, CCT5 / RFU, WDR92 / Fold change vs veh, WDR92 / RFU, CUX1 / Fold change vs veh, CUX1 / RFU, TTC7A / Fold change vs veh, TTC7A / RFU, TMEM135 / Fold change vs veh, TMEM135 / RFU, DEPTOR / Fold change vs veh, DEPTOR / RFU, CPM / Fold change vs veh, CPM / RFU, DNAJB6 / Fold change vs veh, DNAJB6 / RFU, CACNA2D3 / Fold change vs veh, CACNA2D3 / RFU, DTX4 / Fold change vs veh, DTX4 / RFU, TFCP2 / Fold change vs veh, TFCP2 / RFU, GMCL1 /// GMCL1P1 / Fold change vs veh, GMCL1 /// GMCL1P1 / RFU, AEBP2 / Fold change vs veh, AEBP2 / RFU, SNHG1 /// SNORD22 /// SNORD25 /// SNORD26 /// SNORD27 /// SNORD28 /// SNORD29 /// SNORD31 / Fold change vs veh, SNHG1 /// SNORD22 /// SNORD25 /// SNORD26 /// SNORD27 /// SNORD28 /// SNORD29 /// SNORD31 / Fold change (Aza/veh), C12orf56 (ProbeSet 11735607_a_at) / Fold change (ACY-1035/veh), C12orf56 (ProbeSet 11735607_a_at) / Fold change (Aza/veh), FGFR1OP (ProbeSet 11751329_s_at) / Fold change (ACY-1035/veh), FGFR1OP (ProbeSet 11751329_s_at) / Fold change (Aza/veh), VPS36 (ProbeSet 11739960_a_at) / Fold change (ACY-1035/veh), VPS36 (ProbeSet 11739960_a_at) / RFU SYPL1 (11715823_x_at) / Fold change /veh SYPL1 (11715823_x_at) / RFU IGFBP7 (11715501_s_at) / Fold change /veh IGFBP7 (11715501_s_at) / RFU REEP3 (11722064_at) / Fold change /veh REEP3 (11722064_at) / RFU IGLL1 (11728026_x_at) / Fold change /veh IGLL1 (11728026_x_at): dose or concentration left out as unconfirmed. The settings on record: MV-4-11 cells, 48 hours.

For the compound `Nc1ccc(-c2cccs2)cc1NC(=O)c1ccc2c(c1)cc(C1CC1)n2CCN1CCOCC1` [ACY-1035], the “RFU OLFML3 (11715873_a_at)” value was 13.14 RFU.
